system: mutant Huntington (HTT) protein; test: HTT Mutant HTRF iPSC assay (mHTT protein lowering); type: cell-based; details: human iPSC derived from a HTT patient with a poly-Q49 mutation

`Cc1cn2nc(-c3cc(F)c4nc([C@H]5C[C@]6(CN[C@@H](C)C6)C5)cn4c3)cc(C)c2n1` (single isomer, unassigned) [Compound 177, 6-(8-fluoro-2-((2S*,4r,7S*)-7-methyl-6-azaspiro[3.4]octan-2-yl)imidazo[1,2-a]pyridin-6-yl)-2,8-dimethylimidazo[1,2-b]pyridazine] and `Cc1cn2nc(-c3cc(F)c4nc([C@H]5C[C@@]6(CCN(C)C6)C5)cn4c3)cc(C)c2n1` [Compound 202, 6-(8-fluoro-2-((2r,4r)-6-methyl-6-azaspiro[3.4]octan-2-yl)imidazo[1,2-a]pyridin-6-yl)-2,8-dimethylimidazo[1,2-b]pyridazine] cannot be ordered by IC50: < 100 nM for the first, < 100 nM for the second.

First: Cc1cn2nc(-c3cc(F)c4nc([C@]56CC[C@@H](C5)NC6)cn4c3)cc(C)c2n1 (single isomer, unassigned) [Compound 115]
Second: Cc1cn2nc(-c3cc(F)c4nc(NC(=O)C5CCNC6(CC6)C5)cn4c3)cc(C)c2n1 (centres unmarked) [Compound 268, N-(6-(2,8-dimethylimidazo[1,2-b]pyridazin-6-yl)-8-fluoroimidazo[1,2-a]pyridin-2-yl)-4-azaspiro[2.5]octane-7-carboxamide]
The IC50 of the first is higher: 100 to 1000 nM for the first, < 100 nM for the second. The second is the more potent here.

First: Cc1cn2nc(-c3cc(F)c4nc(N(C)C5CCN(C)C(C)C5)oc4c3)cc(C)c2n1 (centres unmarked) [Compound 473, 6-(2,8-dimethylimidazo[1,2-b]pyridazin-6-yl)-N-(1,2-dimethylpiperidin-4-yl)-4-fluoro-N-methylbenzo[d]oxazol-2-amine]
Second: CCN1CC[C@@H](N(C)c2nc3c(F)cc(-c4cc(C)c5nc(C)cn5n4)cc3o2)C[C@H]1C (stereo in doubt) [Compound 487, rel-6-(2,8-dimethylimidazo[1,2-b]pyridazin-6-yl)-N-((2R,4R)-1-ethyl-2-methylpiperidin-4-yl)-4-fluoro-N-methylbenzo[d]oxazol-2-amine]
The IC50 of the first is higher: 100 to 1000 nM for the first, < 100 nM for the second. The second is the more potent here.

`COc1cc(-c2cc(F)c3nn(C4CCNCC4)nc3c2)nn2nc(C)nc12` [Compound 392, 6-(7-fluoro-2-(piperidin-4-yl)-2H-benzo[d][1,2,3]triazol-5-yl)-8-methoxy-2-methyl-[1,2,4]triazolo[1,5-b]pyridazine] and `Cc1cn2nc(-c3cc(F)c4nn(C5CCNCC5)nc4c3)ccc2n1` [Compound 384, 4-fluoro-6-(2-methylimidazo[1,2-b]pyridazin-6-yl)-2-(piperidin-4-yl)-2H-benzo[d][1,2,3]triazole] fall in the same range of IC50: 100 to 1000 nM for the first, 100 to 1000 nM for the second.

`Cc1cn2nc(-c3cc(F)c4nc(N5CCC6(CCN(C)C6)CC5)oc4c3)cc(C)c2n1` [Compound 470, 6-(2,8-dimethylimidazo[1,2-b]pyridazin-6-yl)-4-fluoro-2-(2-methyl-2,8-diazaspiro[4.5]decan-8-yl)benzo[d]oxazole] and `Cc1cn2nc(-c3cc(F)c4nc(N5CCC6(CCN(C)CC6)C5)oc4c3)cc(C)c2n1` [Compound 468, 6-(2,8-dimethylimidazo[1,2-b]pyridazin-6-yl)-4-fluoro-2-(8-methyl-2,8-diazaspiro[4.5]decan-2-yl)benzo[d]oxazole] cannot be ordered by IC50: < 100 nM for the first, < 100 nM for the second.

`O=C1Cc2cc(-c3cc(F)c4nc(C5CCNCC5)cn4c3)cc(F)c2N1` [Compound 57, 7-fluoro-5-(8-fluoro-2-(piperidin-4-yl)imidazo[1,2-a]pyridin-6-yl)indolin-2-one] and `Cc1n[nH]c2ccc(-c3cc(F)c4nc(C5CCNCC5)cn4c3)cc12` [Compound 53, 5-(8-fluoro-2-(piperidin-4-yl)imidazo[1,2-a]pyridin-6-yl)-3-methyl-1H-indazole] fall in the same range of IC50: 1000 to 9000 nM for the first, 1000 to 9000 nM for the second.

`COCCN1CCC(n2cc3cc(-c4cc(C(F)(F)F)c5nc(C)cn5n4)cc(F)c3n2)CC1` [Compound 373, 6-(7-fluoro-2-(1-(2-methoxyethyl)piperidin-4-yl)-2H-indazol-5-yl)-2-methyl-8-(trifluoromethyl)imidazo [1,2-b]pyridazine] and `Cc1cn2nc(-c3cc(F)c4nn(C5CCNCC5)cc4c3)cc(C)c2n1` [Compound 355, 6-(7-fluoro-2-(piperidin-4-yl)-2H-indazol-5-yl)-2,8-dimethylimidazo[1,2-b]pyridazine] cannot be ordered by IC50: < 100 nM for the first, < 100 nM for the second.

First: CN1CCC(c2cn3cc(-c4cc(F)c5nn(C)cc5c4)cc(F)c3n2)CC1 [Compound 26, 7-fluoro-5-(8-fluoro-2-(1-methylpiperidin-4-yl)imidazo[1,2-a]pyridin-6-yl)-2-methyl-2H-indazole]
Second: CN1CCC(N(C)C(=O)c2cn3cc(-c4cc(F)c5nn(C)cc5c4)cc(F)c3n2)CC1 [Compound 129, 8-fluoro-6-(7-fluoro-2-methyl-indazol-5-yl)-N-methyl-N-(1-methyl-4-piperidyl)imidazo[1,2-a]pyridine-2-carboxamide]
The IC50 of the first is lower: 100 to 1000 nM for the first, 1000 to 9000 nM for the second. The first is the more potent here.

`CCN1CCC(c2cn3cc(-c4ccc5nn(C)cc5c4)cc(F)c3n2)CC1` [Compound 7, 5-(2-(1-ethylpiperidin-4-yl)-8-fluoroimidazo[1,2-a]pyridin-6-yl)-2-methyl-2H-indazole] and `CNC12CCC(c3cn4cc(-c5cc(F)c6nn(C)cc6c5)cc(F)c4n3)(C1)C2` [Compound 77, 4-(8-fluoro-6-(7-fluoro-2-methyl-2H-indazol-5-yl)imidazo[1,2-a]pyridin-2-yl)-N-methylbicyclo[2.1.1] hexan-1-amine] fall in the same range of IC50: 1000 to 9000 nM for the first, 1000 to 9000 nM for the second.

Compared with `Cc1cn2nc(-c3cc(F)c4nn([C@H]5[C@@H]6CNC[C@@H]65)cc4c3)cc(C)c2n1` [Compound 361, 6-[2-[(1R,5S)-3-azabicyclo[3.1.0]hexan-6-yl]-7-fluoro-indazol-5-yl]-2,8-dimethyl-imidazo[1,2-b]pyridazine], `Cc1cn2nc(-c3cc(F)c4nn(C5C[C@@H](C)N[C@H](C)C5)nc4c3)cc(C)c2n1` (relative stereo) [Compound 393, 6-(2,8-dimethylimidazo[1,2-b]pyridazin-6-yl)-2-((2R,6R)-2,6-dimethylpiperidin-4-yl)-4-fluoro-2H-benzo[d][1,2,3]triazole] is higher in IC50: < 100 nM for the first, 100 to 1000 nM for the second.

First: Cc1cn2cc(-c3cc(F)c4nc(C5CCNCC5)nn4c3)cc2c(C)n1 [Compound 431, 6-(1,3-dimethylpyrrolo[1,2-a]pyrazin-7-yl)-8-fluoro-2-(piperidin-4-yl)-[1,2,4]triazolo[1,5-a]pyridine]
Second: Cc1cn2nc(-c3cc(F)c4nc(C5CCNCC5)cn4c3)cc(C(F)F)c2n1 [Compound 153, 8-(difluoromethyl)-6-(8-fluoro-2-(piperidin-4-yl)imidazo[1,2-a]pyridin-6-yl)-2-methylimidazo[1,2-b]pyridazine]
The IC50 of the first is higher: 100 to 1000 nM for the first, < 100 nM for the second. The second is the more potent here.

`COc1cc(-c2cc(F)c3nc(NC(=O)C4CN(C(C)C)C4)cn3c2)nn2nc(C)nc12` [Compound 296, N-(8-fluoro-6-(8-methoxy-2-methyl-[1,2,4]triazolo[1,5-b]pyridazin-6-yl)imidazo[1,2-a]pyridin-2-yl)-1-isopropylazetidine-3-carboxamide] and `Cc1cn2nc(-c3cc(F)c4nc(NC(=O)[C@H]5C[C@@H](N(C)C)C5)cn4c3)cc(C)c2n1` [Compound 289, (1s,3s)-3-(dimethylamino)-N-(6-(2,8-dimethylimidazo[1,2-b]pyridazin-6-yl)-8-fluoroimidazo[1,2-a]pyridin-2-yl)cyclobutane-1-carboxamide] cannot be ordered by IC50: < 100 nM for the first, < 100 nM for the second.

`Cc1cn2nc(-c3cc(F)c4nc(N(C)C5CCN(C(C)C)CC5)oc4c3)cc(C)c2n1` [Compound 469, 6-(2,8-dimethylimidazo[1,2-b]pyridazin-6-yl)-4-fluoro-N-(1-isopropylpiperidin-4-yl)-N-methylbenzo[d]oxazol-2-amine] and `Cc1cn2nc(-c3cc(F)c4nc(N5CCC6(CCN(C)C6)C5)oc4c3)cc(C)c2n1` (centres unmarked) [Compound 501, 6-(2,8-dimethylimidazo[1,2-b]pyridazin-6-yl)-4-fluoro-2-(7-methyl-2,7-diazaspiro[4.4]nonan-2-yl)benzo[d]oxazole] fall in the same range of IC50: 100 to 1000 nM for the first, 100 to 1000 nM for the second.

Compared with `N#Cc1cccc2[nH]c(-c3cc(F)c4nc(C5CCNCC5)cn4c3)cc12` [Compound 56, 2-(8-fluoro-2-(piperidin-4-yl)imidazo[1,2-a]pyridin-6-yl)-1H-indole-4-carbonitrile], `Cc1cn2nc(-c3cc(F)c4nc(C5CCNCC5)c(Cl)n4c3)ccc2n1` [Compound 126, 6-[3-chloro-8-fluoro-2-(4-piperidyl)imidazo[1,2-a]pyridin-6-yl]-2-methyl-imidazo[1,2-b]pyridazine] is lower in IC50: 1000 to 9000 nM for the first, < 100 nM for the second.

`Cc1cn2nc(-c3cc(F)c4nc(C5CCC6(CCN(C)CC6)C5)cn4c3)cc(C)c2n1` (centres unmarked) [Compound 229, 2-(6-(2,8-dimethylimidazo[1,2-b]pyridazin-6-yl)-8-fluoroimidazo[1,2-a]pyridin-2-yl)-8-methyl-8-azaspiro[4.5]decane] and `Cc1cn2nc(-c3cc(F)c4nc(NC(=O)C5CCC(N(C)C)C5)cn4c3)cc(C)c2n1` (racemic) [Compound 128, rac-3-(dimethylamino)-N-(6-(2,8-dimethylimidazo[1,2-b]pyridazin-6-yl)-8-fluoroimidazo[1,2-a]pyridin-2-yl)cyclopentane-1-carboxamide] cannot be ordered by IC50: < 100 nM for the first, < 100 nM for the second.

Compared with `Cc1cn2nc(-c3cc(F)c4nc(NC(=O)C5CC6CC5CN6)cn4c3)cc(C)c2n1` (racemic) [Compound 280], `Cc1cn2nc(-c3cc(F)c4nc(C[C@H]5C[C@@H](N)C5)nn4c3)cc(C)c2n1` [Compound 450, (1s,3s)-3-((6-(2,8-dimethylimidazo[1,2-b]pyridazin-6-yl)-8-fluoro-[1,2,4]triazolo[1,5-a]pyridin-2-yl)methyl)cyclobutan-1-amine] is higher in IC50: < 100 nM for the first, 100 to 1000 nM for the second. The first is the more potent here.

First: Cc1cn2nc(-c3cc(F)c4nc(N5CCC6(CCCN6C)CC5)oc4c3)cc(C)c2n1 [Compound 514, 6-(2,8-dimethylimidazo[1,2-b]pyridazin-6-yl)-4-fluoro-2-(1-methyl-1,8-diazaspiro[4.5]decan-8-yl)benzo[d]oxazole]
Second: Cc1cn2nc(-c3cc(F)c4nc(N5CCC(CN6CCCC6)C5)oc4c3)cc(C)c2n1 (centres unmarked) [Compound 483, 6-(2,8-dimethylimidazo[1,2-b]pyridazin-6-yl)-4-fluoro-2-(3-(pyrrolidin-1-ylmethyl)pyrrolidin-1-yl)benzo[d]oxazole]
The IC50 of the first is lower: < 100 nM for the first, 100 to 1000 nM for the second.

Work on `Cc1cn2nc(-c3cc(F)c4nc(C5CCC6(CC5)CC(N)C6)[nH]c4c3)cc(C)c2n1` (centres unmarked) [Compound 559, 7-(6-(2,8-dimethylimidazo[1,2-b]pyridazin-6-yl)-4-fluoro-1H-benzo[d]imidazol-2-yl)spiro[3.5]nonan-2-amine] yielded an IC50 of 100 to 1000 nM.

From US20250353841A1 (BIOGEN MA INC., priority 2022, published 2025)
